Source: EP3114111B1, “BICYCLIC PYRROLE DERIVATIVES USEFUL AS AGONISTS OF GPR120” (Janssen Pharmaceutica NV, priority 2014, dated 2015)

What was measured:
[1] = system: C57bl6 Mouse; experiment: GPR120 C57bl6 Mouse IPGTT; format: in vivo, C57bl/6J Mice
Method: Male, C57bl/6J Mice were ordered in at 8 weeks of age from Jackson Labs. Individual mice weighed anywhere in the range of 25-30 grams on study day. The mice were fasted, with removal of food occurring at 7am on the morning of the study. Animals were moved into the room at 10:00am, to give them time to acclimate. Glucose (insulin syringes) was drawn up either the night before or the morning of the study. Glucose was dosed (IP) at 1.5g/kg at 7.5ml/kg (20% glucose straight TEKNOVA, 250ml sterile bottle w/ catalogue number G0525). Test compounds were kept spinning and were only drawn into the syringes prior to study commencement. Animals were bled via tail snip to determine basal glucose levels prior to dosing of treatments. An Ascensia BREEZE Blood Glucose Monitoring System by Bayer (using unique 10-test disks) was used for determining glucose levels. The bleeds started at approximately 12:45pm and dosing started, at 1-minute intervals, immediately after. All groups were dosed 30 minutes prior to glucose administration at a dose volume of 10ml/kg (the dose volume was calculated separately for each individual animal). Thirty minutes after the first dose animals were bled again for a second baseline, or T=0, and immediately dosed with glucose via an i.p. injection. The exact dose volume for glucose was also calculated separately for each individual animal. Glucose measurements were taken at -30min prior to compound dose, at t=0 (immediately prior to glucose dose), and at 15, 30, 45, 60, 90min post glucose dose.
Glucose values were entered into an Excel sheet and graphed in GraphPad Prism. The following were calculated from Prism: Change from -30 to 0 BSLN Glucose, Raw Glucose AUC -30 to 90min, Delta Glucose AUC -30 to 90min, Raw Glucose AUC 0 to 90min, Delta Glucose AUC 0 to 90min.

[2] = system: DIO Mice; experiment: GPR120 DIO Mice OGTT Screening; format: in vivo, C57BI6 mice; details: for DIO Lowering Glucose AUC: DIO mice OGTT; for Lowering Glucose AUC: DIO Dose Response
Method: 18-22 week old, C57BI6 mice on a high fat diet (60% HFD) for 12-16 weeks (ave. body weight ∼ 37-41g) were fasted for 6hr, with removal of food occurring at 7 am on the morning of the study. The animals were sorted into treatment groups the day before the study by body weight. Animals outside the bounds of ∼30-50g were left out of the study. The animals had been handled and shammed a total of 5-8 days (1-3 days immediately prior to the study). Glucose (in 1ml syringes) was drawn up the morning of the study. Test compounds were kept spinning and were only drawn into 1ml syringes prior to study commencement. Animals were bled via tail snip to determine basal glucose levels prior to dosing of treatments. An Ascensia BREEZE Blood Glucose Monitoring System by Bayer was used for determining glucose levels.
Animals were moved into the testing room at ∼9-11am, to yield them time to acclimate. The bleeds and dosing started at approximately 1pm in 30-second intervals per animal. All groups were dosed 30 minutes prior to glucose administration at a dose volume of 10ml/kg (the dose volume was calculated separately for each individual animal). Test compounds were administered at two or more of the following dosages: 0.1 mg/kg, 0.3 mg/kg, 1 mg/kg, 3 mg/kg, 10 mg/kg and 30 mg/kg.
Thirty minutes after the first dose (with test compound) animals were bled again for a second baseline, or T=0, and immediately dosed with glucose (20% solution; TEKNOVA, 250ml sterile bottle w/ catalogue number G0525) via a PO injection. The exact dose volume for glucose was also calculated separately for each individual animal.
Blood glucose was measured at 15, 30, 45, 60, and 90 minutes post-glucose administration via the snipped tail. If an animal reached a value of "HI", the upper limit of the glucometer (600mg/dl) was substituted as the blood glucose value and the study was analyzed as normal with no exclusions. If 50% or more of any treatment group reaches a "HI" value at least once, the study was considered invalid and repeated. Glucose values were typed into an EXCEL spreadsheet where they were used to calculate glucose AUC and delta AUC post-compound and post-glucose. The glucose excursion curves and the different versions of the AUC's were graphed in GraphPad Prism 5.
Note: All statistics completed in this study were completed using the statistical software package GraphPad Prism 5. Standard procedures for analyzing data sets from screening GPR120 compounds in DIO mouse OGTT's were as listed here below. In addition to the statistics that were run using GraphPad Prism 5, Microsoft Excel was used to calculate the percent changes in AUC from vehicle groups as detailed below.
Change from -30 to 0 BSLN Glucose, Raw Glucose AUC -30 to 90min, Delta Glucose AUC -30 to 90min, Raw Glucose AUC 0 to 90min, Delta Glucose AUC 0 to 90min were analyzed using Column Statistics Analysis, with mean values used to calculate % change from the vehicle mean group, as well as mean, SEM and / or % change from vehicle, where appropriate; and using One-Way ANOVA w/ a Tukey Post-Test (Comparing All Pairs of Columns) with each treatment group examined to see if it was statistically significant compared to vehicle (*= P<0.05, **= P<0.01, ***= P<0.001).

Structure (SMILES)	GPR120 C57bl6 Mouse IPGTT Results ([1]; 10.0 mg/kg)	DIO Lowering Glucose AUC ([2]; 3 mg/kg) [%]	DIO Lowering Glucose AUC ([2]; 10 mg/kg) [%]	further results
OCCCc1cc(F)c(OCc2c(C(F)(F)F)ccn2-c2ccc(Br)cc2)c(F)c1 [Compound 30, 3-(4-{[1-(4-Bromophenyl)-3-(trifluoromethyl)-1H-pyrrol-2-yl]methoxy}-3,5-difluorophenyl)propan-1-ol]	-53	–	–	C57bl6 Mouse IPGTT dose response ([1]; 1 mg/kg): 1%; C57bl6 Mouse IPGTT dose response ([1]; 3 mg/kg): -14%; C57bl6 Mouse IPGTT dose response ([1]; 10 mg/kg): -48%
COc1ccc(-n2ccc(C(F)(F)F)c2COc2ccc(CCCO)c(F)c2F)cc1 [Compound 27, 3-(2,3-Difluoro-4-{[1-(4-methoxyphenyl)-3-(trifluoromethyl)-1H-pyrrol-2-yl]methoxy}phenyl)propan-1-ol]	-16	–	–	–
Cc1c(CCC(=O)O)ccc(OCc2cccn2-c2ccc(Cl)cc2)c1C [Compound 1, 3-(4-{[1-(4-Chlorophenyl)-1H-pyrrol-2-yl]methoxy}-2,3-dimethylphenyl)propanoic acid]	–	–	–	GPR120 C57bl6 Mouse IPGTT Results ([1]; 30.0 mg/kg): not different from vehicle
Cc1ccc(-n2ccc(C(F)(F)F)c2COc2c(F)cc(CCC(=O)O)cc2F)cc1 [Compound 39, 3-(3,5-Difluoro-4-{[1-(4-methylphenyl)-3-(trifluoromethyl)-1H-pyrrol-2-yl]methoxy}phenyl)propanoic acid]	–	-59	-68	–
CCc1ccc(-n2ccc(C(F)(F)F)c2COc2c(F)cc(CCCO)cc2F)cc1 [Compound 33, 3-(4-{[1-(4-Ethylphenyl)-3-(trifluoromethyl)-1H-pyrrol-2-yl]methoxy}-3,5-difluorophenyl)propan-1-ol]	-26	–	–	–
Cc1ccc(-n2ccc(C(F)(F)F)c2COc2c(F)cc(CCCO)cc2F)cc1 [Compound 37, 3-(3,5-Difluoro-4-{[1-(4-methylphenyl)-3-(trifluoromethyl)-1H-pyrrol-2-yl]methoxy}phenyl)propan-1-ol]	-30	–	–	–
O=C(O)CCc1cc(F)c(OCc2c(C(F)(F)F)ccn2-c2ccc(Cl)cc2)c(F)c1 [Compound 70, 3-(4-{[1-(4-Chlorophenyl)-3-(trifluoromethyl)-1H-pyrrol-2-yl]methoxy}-3,5-difluorophenyl)propanoic acid]	–	-79	-82	Lowering Glucose AUC ([2]; 0.1 mg/kg): 9%; Lowering Glucose AUC ([2]; 0.3 mg/kg): -8%; Lowering Glucose AUC ([2]; 1.0 mg/kg): -54%; Lowering Glucose AUC ([2]; 3.0 mg/kg): -73%
CCc1ccc(-n2ccc(C(F)(F)F)c2COc2ccc(CCC(=O)O)c(F)c2F)cc1 [Compound 34, 3-(4-{[1-(4-Ethylphenyl)-3-(trifluoromethyl)-1H-pyrrol-2-yl]methoxy}-2,3-difluorophenyl)propanoic acid]	–	-27	-50	–
COc1ccc(-n2ccc(C(F)(F)F)c2COc2c(F)cc(CCCO)cc2F)cc1 [Compound 31, 3-(3,5-Difluoro-4-{[1-(4-methoxyphenyl)-3-(trifluoromethyl)-1H-pyrrol-2-yl]methoxy}phenyl)propan-1-ol]	-43	–	–	C57bl6 Mouse IPGTT dose response ([1]; 1 mg/kg): 2%; C57bl6 Mouse IPGTT dose response ([1]; 3 mg/kg): -39%; C57bl6 Mouse IPGTT dose response ([1]; 10 mg/kg): -44%
